Experimental data from patent US9006177B2 (Advinus Therapeutics Limited, priority 2010, dated 2015).
pKi: −log10 of the molar value.

Target: T1, Human A2A adenosine receptor (Homo sapiens, UniProt P29274)
T1 construct: expressed in transfected cells
Assay: Radioligand binding for A2A adenosine receptor ([3H]-ZM-241385 competition, HEK-A2A membranes)
Details: HEK-293 membranes, 2 nM [3H]-ZM-241385, read-out: A2A Cell based Functional Ki*
Excerpt: […]

T1 sequence (P29274 whole entry): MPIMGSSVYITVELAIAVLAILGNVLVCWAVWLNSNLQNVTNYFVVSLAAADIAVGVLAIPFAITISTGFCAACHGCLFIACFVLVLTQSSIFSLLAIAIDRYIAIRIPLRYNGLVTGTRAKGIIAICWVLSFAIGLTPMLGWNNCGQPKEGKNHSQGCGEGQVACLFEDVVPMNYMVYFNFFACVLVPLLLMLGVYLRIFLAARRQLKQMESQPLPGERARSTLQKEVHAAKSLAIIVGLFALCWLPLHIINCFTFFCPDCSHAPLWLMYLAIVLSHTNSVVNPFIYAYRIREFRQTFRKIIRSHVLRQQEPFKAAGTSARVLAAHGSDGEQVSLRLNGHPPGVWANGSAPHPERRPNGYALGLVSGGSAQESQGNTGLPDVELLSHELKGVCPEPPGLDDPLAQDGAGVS

Structure (SMILES)	pKi
COCCOc1ccc(N2CCN(CCn3c(=O)n(C)c4c3nc(N)n3nc(-c5ccco5)nc43)CC2)cc1 [Example A1]	8.00 to 10.00
Cc1cnc2c(c1)CN(CCn1c(=O)n(C)c3c1nc(N)n1nc(-c4nccs4)nc31)CC2 [Example M6, 5-Amino-1-methyl-3-[2-(3-methyl-7,8-dihydro-5H-1,6-naphthyridin-6-yl)ethyl]-8-thiazol-2-yl-[1,2,4]triazolo[5,1-f]purin-2-one]	8.00 to 10.00
COCCOc1ccc(N2CCN(CCn3c(=O)n(C)c4c3nc(N)n3nc(-c5ccco5)nc43)CC2)c(F)c1 [Example A31]	8.00 to 10.00
CN(C)S(=O)(=O)N1CCN(CCn2c(=O)n(C)c3c2nc(N)n2nc(-c4ccco4)nc32)CC1 [Example A38, 4-[2-[5-Amino-8-(2-furyl)-1-methyl-2-oxo-[1,2,4]triazolo[5,1-f]purin-3-yl]ethyl]-N,N-dimethyl-piperazine-1-sulfonamide]	8.00 to 10.00
COc1ccc(N2CCN(CCn3c(=O)n(C)c4c3nc(N)n3nc(-c5ccco5)nc43)CC2)c(F)c1 [Example A9]	8.00 to 10.00
Cn1c(=O)n(CCN2CCN(c3ccc(OC4CCOC4)cc3)CC2)c2nc(N)n3nc(-c4ccco4)nc3c21 (stereo not drawn) [Example A39, 5-Amino-8-(2-furyl)-1-methyl-3-[2-[4-(4-tetrahydrofuran-3-yloxyphenyl)piperazin-1-yl]ethyl]-[1,2,4]triazolo[5,1-f]purin-2-one]	8.00 to 10.00
Cn1c(=O)n(CCN2CCN(C(=O)CC3CC3)CC2)c2nc(N)n3nc(-c4ccco4)nc3c21 [Example A63, 5-Amino-3-[2-[4-(2-cyclopropylacetyl)piperazin-1-yl]ethyl]-8-(2-furyl)-1-methyl-[1,2,4]triazolo[5,1-f]purin-2-one]	7.00 to 8.00
Cc1cnc2c(c1)CN(CCn1c(=O)n(C)c3c1nc(N)n1nc(-c4ccco4)nc31)CC2 [Example A42, 5-Amino-8-(2-furyl)-1-methyl-3-[2-(3-methyl-7,8-dihydro-5H-1,6-naphthyridin-6-yl)ethyl]-[1,2,4]triazolo[5,1-f]purin-2-one]	8.00 to 10.00
CCOc1ccc(N2CCN(CCn3c(=O)n(CC4CC4)c4c3nc(N)n3nc(-c5ccco5)nc43)CC2)cc1 [Example C1, 5-Amino-1-(cyclopropylmethyl)-3-[2-[4-(4-ethoxyphenyl)piperazin-1-yl]ethyl]-8-(2-furyl)-[1,2,4]triazolo[5,1-f]purin-2-one]	8.00 to 10.00
COc1ccc(CCn2c(=O)n(C)c3c2nc(N)n2nc(-c4ccco4)nc32)cc1 [Example A57]	8.00 to 10.00
Cn1c(=O)n(CCN2CCN(C(=O)CC3CC3)CC2)c2nc(N)n3nc(-c4nccs4)nc3c21 [Example M3, 5-Amino-3-[2-[4-(2-cyclopropylacetyl)piperazin-1-yl]ethyl]-1-methyl-8-thiazol-2-yl-[1,2,4]triazolo[5,1-f]purin-2-one]	7.00 to 8.00
Cn1c(=O)n(CCN2CCN(c3ccc(OC(F)F)cc3)CC2)c2nc(N)n3nc(-c4ccco4)nc3c21 [Example A58, 5-amino-3-[2-[4-[4-(difluoromethoxy)phenyl]piperazin-1-yl]ethyl]-8-(2-furyl)-1-methyl-[1,2,4]triazolo[5,1-f]purin-2-one]	8.00 to 10.00
Cc1ccc(N2CCN(CCn3c(=O)n(C)c4c3nc(N)n3nc(-c5ccco5)nc43)CC2)cc1 [Example A7, 5-Amino-8-(2-furyl)-1-methyl-3-[2-[4-(p-tolyl)piperazin-1-yl]ethyl]-[1,2,4]triazolo[5,1-f]purin-2-one]	8.00 to 10.00
COCCOc1ccc(N2CCN(CCn3c(=O)n(C)c4c3nc(N)n3nc(-c5nccs5)nc43)CC2)cc1 [Example M1, 5-Amino-3-[2-[4-[4-(2-methoxyethoxy)phenyl]piperazin-1-yl]ethyl]-1-methyl-8-thiazol-2-yl-[1,2,4]triazolo[5,1-f]purin-2-one]	8.00 to 10.00
Cn1c(=O)n(CCN2CCN(c3ccc(C(C)(C)O)cc3)CC2)c2nc(N)n3nc(-c4ccco4)nc3c21 [Example A13]	8.00 to 10.00
Cn1c(=O)n(CCN2CCN(C(=O)C3CC3)CC2)c2nc(N)n3nc(-c4ccco4)nc3c21 [Example A62, 5-Amino-3-[2-[4-(cyclopropanecarbonyl)piperazin-1-yl]ethyl]-8-(2-furyl)-1-methyl-[1,2,4]triazolo[5,1-f]purin-2-one]	8.00 to 10.00
Cn1c(=O)n(CCN2CCN(CC3CC3)CC2)c2nc(N)n3nc(-c4ccco4)nc3c21 [Example A36, 5-Amino-3-[2-[4-(cyclopropylmethyl)piperazin-1-yl]ethyl]-8-(2-furyl)-1-methyl-[1,2,4]triazolo[5,1-f]purin-2-one]	7.00 to 8.00
Nc1nc2c(c3nc(-c4ccco4)nn13)n(CC(F)(F)F)c(=O)n2CCN1CCN(c2ccc(F)cc2F)CC1 [Example H2, 5-Amino-3-{2-[4-(2,4-difluoro-phenyl)-piperazin-1-yl]-ethyl}-8-furan-2-yl-1-(2,2,2-trifluoro-ethyl)-1,3-dihydro-[1,2,4]triazolo[5,1-f]purin-2-one]	8.00 to 10.00
CCn1c(=O)n(CCN2CCN(c3ccc(F)cc3F)CC2)c2nc(N)n3nc(-c4ccco4)nc3c21 [Example G2]	7.00 to 8.00
Nc1nc2c(c3nc(-c4ccco4)nn13)n(CC1CC1)c(=O)n2CCn1cc(C(=O)O)cn1 [Example E1, 1-[2-[5-Amino-1-(cyclopropylmethyl)-8-(2-furyl)-2-oxo-[1,2,4]triazolo[5,1-f]purin-3-yl]ethyl]pyrazole-4-carboxylic acid]	8.00 to 10.00
CCn1c(=O)n(CCn2cc(-c3ccc(F)cc3F)cn2)c2nc(N)n3nc(-c4ccco4)nc3c21 [Example D3]	8.00 to 10.00
